From article PMC4506529 (Chemmedchem, 2014)

Experiments:
DNMT1 = settings: compared with SGI-1027; cited from earlier work
[1] = molecular target: human C-terminal DNMT3A (a.a. 623-908) (Homo sapiens, UniProt Q9Y6K1); assay: DNMT3A restriction-based fluorescence enzyme inhibition assay; format: biochemical; settings: for inhibition at 10 µM / inhibition at 32 µM / inhibition at 20 µM: read-out: Inhibition [%] of DNMT3A catalytic activity; for Inhibition [%] of DNMT3A catalytic activity: mean±SEM where given, otherwise single determination
Chain of human C-terminal DNMT3A (a.a. 623-908) (Q9Y6K1 627-912): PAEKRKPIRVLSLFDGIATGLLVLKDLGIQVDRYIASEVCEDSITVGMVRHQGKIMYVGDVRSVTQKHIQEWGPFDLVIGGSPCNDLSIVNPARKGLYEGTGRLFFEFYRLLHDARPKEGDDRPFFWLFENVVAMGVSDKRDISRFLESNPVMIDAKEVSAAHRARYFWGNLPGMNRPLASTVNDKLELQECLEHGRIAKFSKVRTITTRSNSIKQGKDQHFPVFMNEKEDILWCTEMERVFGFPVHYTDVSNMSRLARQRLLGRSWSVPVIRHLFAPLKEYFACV

[2] = molecular target: T1, histone lysine methyltransferases G9a (Homo sapiens, UniProt Q96KQ7); assay: G9A inhibition assay; format: biochemical
T1 sequence (Q96KQ7 1-1210): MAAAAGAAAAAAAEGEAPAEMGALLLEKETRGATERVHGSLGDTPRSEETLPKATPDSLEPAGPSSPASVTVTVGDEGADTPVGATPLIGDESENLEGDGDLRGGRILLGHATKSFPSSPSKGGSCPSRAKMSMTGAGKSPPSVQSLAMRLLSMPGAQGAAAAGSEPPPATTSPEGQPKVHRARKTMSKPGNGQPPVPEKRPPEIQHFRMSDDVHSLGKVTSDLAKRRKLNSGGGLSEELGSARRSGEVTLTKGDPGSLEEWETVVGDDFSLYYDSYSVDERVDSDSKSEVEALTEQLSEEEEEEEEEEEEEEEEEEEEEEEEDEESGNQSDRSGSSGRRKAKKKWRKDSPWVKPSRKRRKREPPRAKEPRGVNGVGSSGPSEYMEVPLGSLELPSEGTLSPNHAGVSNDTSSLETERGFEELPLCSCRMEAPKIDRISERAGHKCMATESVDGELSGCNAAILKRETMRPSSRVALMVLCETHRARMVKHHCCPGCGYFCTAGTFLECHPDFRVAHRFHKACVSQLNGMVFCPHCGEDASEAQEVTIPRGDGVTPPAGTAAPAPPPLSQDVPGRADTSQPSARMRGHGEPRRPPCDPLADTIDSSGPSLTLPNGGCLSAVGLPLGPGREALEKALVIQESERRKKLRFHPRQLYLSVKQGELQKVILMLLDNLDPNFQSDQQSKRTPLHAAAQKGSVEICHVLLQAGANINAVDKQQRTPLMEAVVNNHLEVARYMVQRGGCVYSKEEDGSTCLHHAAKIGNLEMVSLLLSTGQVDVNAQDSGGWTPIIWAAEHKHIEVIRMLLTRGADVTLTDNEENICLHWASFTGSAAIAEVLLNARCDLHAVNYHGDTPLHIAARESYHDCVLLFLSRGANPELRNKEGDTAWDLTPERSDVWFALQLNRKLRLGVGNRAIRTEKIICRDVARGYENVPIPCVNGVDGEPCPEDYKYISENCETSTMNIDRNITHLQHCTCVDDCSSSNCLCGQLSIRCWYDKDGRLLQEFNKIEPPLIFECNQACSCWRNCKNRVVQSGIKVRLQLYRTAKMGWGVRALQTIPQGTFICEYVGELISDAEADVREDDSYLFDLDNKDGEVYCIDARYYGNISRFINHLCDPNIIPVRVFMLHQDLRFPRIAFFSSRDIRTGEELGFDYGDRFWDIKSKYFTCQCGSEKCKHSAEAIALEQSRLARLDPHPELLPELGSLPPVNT

[3] = system: luciferase reporter under control of methylated CMV promoter in KG-1 cells; assay: CMV-luc reexpression in KG-1 cells; format: cell-based, human; settings: 24 h; for Fold reactivation of luciferase (CMV-luc): vs untreated cells, mean±SEM
hDNMT1 = hDNMT1 (Homo sapiens, UniProt P26358); assay: DNMT1 [methyl-3H]SAM FlashPlate assay; format: biochemical
Chain of hDNMT1 (P26358 whole entry): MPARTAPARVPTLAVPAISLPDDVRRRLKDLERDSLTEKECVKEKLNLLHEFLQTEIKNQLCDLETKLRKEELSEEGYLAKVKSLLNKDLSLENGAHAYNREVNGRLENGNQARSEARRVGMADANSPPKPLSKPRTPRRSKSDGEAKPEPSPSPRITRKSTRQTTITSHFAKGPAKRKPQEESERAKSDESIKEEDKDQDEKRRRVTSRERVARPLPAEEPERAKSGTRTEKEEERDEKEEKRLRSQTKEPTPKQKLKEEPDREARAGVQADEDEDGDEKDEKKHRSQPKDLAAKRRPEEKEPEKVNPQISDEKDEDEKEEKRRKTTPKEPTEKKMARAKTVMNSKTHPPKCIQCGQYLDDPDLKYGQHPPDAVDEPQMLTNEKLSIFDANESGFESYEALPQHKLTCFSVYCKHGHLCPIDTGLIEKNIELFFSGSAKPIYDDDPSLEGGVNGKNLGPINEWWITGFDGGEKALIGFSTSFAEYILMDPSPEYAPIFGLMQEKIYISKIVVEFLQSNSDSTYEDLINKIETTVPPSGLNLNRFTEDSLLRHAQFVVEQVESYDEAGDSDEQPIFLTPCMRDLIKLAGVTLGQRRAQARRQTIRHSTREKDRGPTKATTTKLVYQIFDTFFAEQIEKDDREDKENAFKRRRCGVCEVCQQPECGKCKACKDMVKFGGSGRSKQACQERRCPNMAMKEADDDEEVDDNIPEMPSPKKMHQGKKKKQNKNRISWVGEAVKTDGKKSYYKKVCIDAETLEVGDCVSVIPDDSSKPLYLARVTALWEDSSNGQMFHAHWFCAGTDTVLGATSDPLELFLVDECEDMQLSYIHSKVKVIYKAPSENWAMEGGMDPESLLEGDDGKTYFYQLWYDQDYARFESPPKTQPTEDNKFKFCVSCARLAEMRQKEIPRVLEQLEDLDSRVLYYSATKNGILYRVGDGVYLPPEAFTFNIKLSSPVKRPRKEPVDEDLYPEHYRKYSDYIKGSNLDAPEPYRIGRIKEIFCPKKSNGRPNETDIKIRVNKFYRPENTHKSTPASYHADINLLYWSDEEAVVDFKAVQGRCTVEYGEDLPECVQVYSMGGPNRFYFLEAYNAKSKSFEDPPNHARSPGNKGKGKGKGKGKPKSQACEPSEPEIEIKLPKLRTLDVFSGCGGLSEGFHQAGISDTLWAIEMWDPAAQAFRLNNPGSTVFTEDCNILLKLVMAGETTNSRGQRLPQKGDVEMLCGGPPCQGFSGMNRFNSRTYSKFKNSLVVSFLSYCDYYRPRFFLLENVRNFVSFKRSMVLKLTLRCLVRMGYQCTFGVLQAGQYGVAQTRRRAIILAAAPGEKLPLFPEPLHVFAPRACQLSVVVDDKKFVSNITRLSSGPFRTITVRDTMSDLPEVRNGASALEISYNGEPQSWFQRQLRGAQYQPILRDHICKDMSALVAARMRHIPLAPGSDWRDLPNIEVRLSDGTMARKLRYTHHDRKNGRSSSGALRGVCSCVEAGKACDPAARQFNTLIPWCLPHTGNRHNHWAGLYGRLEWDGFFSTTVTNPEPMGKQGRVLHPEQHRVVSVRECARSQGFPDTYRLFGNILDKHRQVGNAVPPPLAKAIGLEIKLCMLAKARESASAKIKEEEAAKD

Compound	inhibition at 10 µM [1] [%]	inhibition at 32 µM [1] [%]	other results
Cc1cc(Nc2ccc(C(=O)Nc3ccc(Nc4ccnc5ccccc45)cc3)cc2)nc(N)n1 [Compound 30, N-[4-(Quinolin-4-ylamino)phenyl]-4-(2-amino-6-methylpyrimidin-4-ylamino)benzamide]	56 ± 11	47 ± 1	DNMT1 degradation (in words) (DNMT1): lower efficiency on DNMT1 degradation than SGI-1027
Cc1cc(Nc2ccc(NC(=O)c3ccc(Nc4ncnc5cc(F)ccc45)cc3)cc2)nc(N)n1 [Compound 15, N-[4-(2-Amino-6-methylpyrimidin-4-ylamino)phenyl]-4-(7-fluoroquinazolin-4-ylamino)benzamide]	19	6	–
O=C(Nc1ccc(Nc2ccnc3ccccc23)cc1)c1ccc(Nc2cc(-c3ccccc3)nc3ccccc23)cc1 [Compound 33, N-[4-(Quinolin-4-ylamino)phenyl]-4-(2-phenylquinolin-4-ylamino)benzamide]	29	46	–
O=C(Nc1ccc(Nc2ccnc3ccccc23)cc1)c1ccc(Nc2ccncc2)cc1 [Compound 31, N-[4-(Quinolin-4-ylamino)phenyl]-4-(pyridin-4-ylamino)benzamide]	73 ± 3	75 ± 8	IC50 [2]: 28 ± 4 µM; Fold reactivation of luciferase (CMV-luc) ([3]; 0.1 μM): 1.1±0.1 fold; Fold reactivation of luciferase (CMV-luc) ([3]; 0.32 μM): 1.3±0.2 fold; Fold reactivation of luciferase (CMV-luc) ([3]; 0.5 μM): 1.6±0.3 fold; Fold reactivation of luciferase (CMV-luc) ([3]; 1 μM): 2.0±0.2 fold; Fold reactivation of luciferase (CMV-luc) ([3]; 3.2 μM): 3.9±0.3 fold; Fold reactivation of luciferase (CMV-luc) ([3]; 5 μM): 3.9±0.1 fold; Fold reactivation of luciferase (CMV-luc) ([3]; 10 μM): 3.2±0.5 fold; concentration from which luciferase expression was reactivated [3]: ≥ 1 µM; EC50 [1]: 0.9 µM; efficacy of hDNMT3A inhibition ([1]; maximal efficacy of the dose–response curve): 90%; EC50 (hDNMT1): 15 ± 3 µM
Cc1cc(Nc2ccc(NC(=O)c3ccc(N)cc3)cc2)nc(N)n1 [Compound 9, N-[4-(2-Amino-6-methylpyrimidin-4-ylamino)phenyl]-4-aminobenzamide]	–	–	inhibition at 20 µM [1]: 0%
O=C(Nc1ccc(Nc2c3ccccc3nc3ccccc23)cc1)c1ccc(Nc2c3ccccc3nc3ccccc23)cc1 [Compound 38, N-[4-(Acridin-9-ylamino)phenyl]-4-(acridin-9-ylamino)benzamide]	48 ± 8	62 ± 22	–
Cc1cc(Nc2ccc(NC(=O)c3ccc([N+](=O)[O-])cc3)cc2)nc(N)n1 [Compound 8, N-[4-(2-Amino-6-methylpyrimidin-4-ylamino)phenyl]-4-nitrobenzamide]	–	–	inhibition at 20 µM [1]: 1%
Cc1cc(Nc2ccc(NC(=O)c3ccc(Nc4ncnc5ccccc45)cc3)cc2)nc(N)n1 [Compound 14, N-[4-(2-Amino-6-methylpyrimidin-4-ylamino)phenyl]-4-(quinazolin-4-ylamino)benzamide]	25	19	–
Cc1cc(Nc2ccc(NC(=O)c3ccc(Nc4ncccn4)cc3)cc2)nc(N)n1 [Compound 11, N-[4-(2-Amino-6-methylpyrimidin-4-ylamino)-phenyl]-4-(pyrimidin-2-ylamino)benzamide]	17	65 ± 3	–
Cc1cc(Nc2ccc(NC(=O)c3ccc(Nc4ncnc5nc[nH]c45)cc3)cc2)nc(N)n1 [Compound 17, N-[4-(2-Amino-6-methylpyrimidin-4-ylamino)phenyl]-4-(7H-purin-6-ylamino)benzamide]	8	–	inhibition at 20 µM [1]: 3%
O=C(Nc1ccc(Nc2ccnc3ccccc23)cc1)c1ccc(Nc2ccnc3ccccc23)cc1 [Compound 37, N-[4-(Quinolin-4-ylamino)phenyl]-4-(quinolin-4-ylamino)benzamide]	39	29	–
O=C(Nc1ccc(Nc2ccncc2)cc1)c1ccc(Nc2ccncc2)cc1 [Compound 36, N-[4-(Pyridin-4-ylamino)phenyl]-4-(pyridin-4-ylamino)benzamide]	18	54 ± 5	–
N-[4-(2-Amino-6-methylpyrimidin-4-ylamino)-phenyl]-4-(pyridin-4-ylmethylamino)benzamide [Compound 25]	–	–	Inhibition [%] of DNMT3A catalytic activity ([1]; 10 μM compound): 0%; Inhibition [%] of DNMT3A catalytic activity ([1]; 32 μM compound): 4%
N-[4-(2-Amino-6-methylpyrimidin-4-ylamino)phenyl]-4-(pyridin-3-ylmethylamino)benzamide [Compound 24]	–	–	Inhibition [%] of DNMT3A catalytic activity ([1]; 10 μM compound): 0%
COc1nc(Nc2ccc(C(=O)Nc3ccc(Nc4cc(C)nc(N)n4)cc3)cc2)nc(OC)n1 [Compound 13, N-[4-(2-Amino-6-methylpyrimidin-4-ylamino)phenyl]-4-(4,6-dimethoxy-1,3,5-triazin-2-ylamino)benzamide]	36	35	–
Nc1cc(Nc2ccc(C(=O)Nc3ccc(Nc4ccnc5ccccc45)cc3)cc2)nc(N)n1 [Compound 32, N-[4-(Quinolin-4-ylamino)phenyl]-4-(2,6-diaminopyrimidin-4-ylamino)benzamide]	53 ± 8	53 ± 13	plateau of DNMT3A inhibition ([1]; plateau between 32 and 1 μM, no dose–response curve (data not shown)): 50%
CNc1ccc(C(=O)Nc2ccc(Nc3cc(C)nc(N)n3)cc2)cc1 [Compound 23, N-[4-(2-Amino-6-methylpyrimidin-4-ylamino)phenyl]-4-(methylamino)benzamide]	0	–	inhibition at 20 µM [1]: 0%
Cc1cc(Nc2ccc(NC(=O)c3ccc(Nc4ccncc4)cc3)cc2)nc(N)n1 [Compound 10, N-[4-(2-Amino-6-methylpyrimidin-4-ylamino)phenyl]-4-(pyridin-4-ylamino)benzamide]	32	91 ± 4	EC50 [1]: 13 µM
Cc1cc(Nc2ccc(NC(=O)c3ccc(Nc4ccnc5ccccc45)cc3)cc2)nc(N)n1 [SGI-1027, N-(4-(2-amino-6-methylpyrimidin-4-ylamino)phenyl)-4-(quinolin-4-ylamino)benzamide, reference compound]	74 ± 5	76 ± 5	–
Cc1cc(Nc2ccc(NC(=O)c3ccc(Nc4cc(-c5ccccc5)nc5ccccc45)cc3)cc2)nc(N)n1 [Compound 16, N-[4-(2-Amino-6-methylpyrimidin-4-ylamino)phenyl]-4-(2-phenylquinolin-4-ylamino)benzamide]	81 ± 5	55 ± 10	Fold reactivation of luciferase (CMV-luc) ([3]; 0.1 μM): 1.0±0.1 fold; Fold reactivation of luciferase (CMV-luc) ([3]; 1 μM): 1.3±0.1 fold; Fold reactivation of luciferase (CMV-luc) ([3]; 3.2 μM): 5.5±1.3 fold; Fold reactivation of luciferase (CMV-luc) ([3]; 5 μM): 6.0±2.0 fold; Fold reactivation of luciferase (CMV-luc) ([3]; 10 μM): 6.1±2.7 fold; EC50 [1]: 1.6 µM
